# Key:
# bedstraw = assay: Test B pre/postemergence bedstraw; format: in vivo, Galium aparine; details: Postemergence
# Outline: (§1)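 Response is a visual 0-to-10 score relative to untreated plants, where 0 means no effect and 10 means complete control, taken twelve to sixteen days after application. Treatments went onto soil at planting and onto foliage of 1- to 4-leaf plants, using a surfactant-containing non-phytotoxic solvent.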
# blackgrass = assay: Test B pre/postemergence blackgrass; format: in vivo, Alopecurus myosuroides
# Outline: as §1
# surinam grass = assay: Test B pre/postemergence surinam grass; format: in vivo, Brachiaria decumbens
# Outline: as §1
# cocklebur = assay: Test B pre/postemergence cocklebur; format: in vivo, Xanthium strumarium
# Outline: as §1
# corn = assay: Test B pre/postemergence corn; format: in vivo, Zea mays
# Outline: as §1
# crabgrass = assay: Test B pre/postemergence crabgrass; format: in vivo, Digitaria sanguinalis
# Outline: as §1
# giant foxtail = assay: Test B pre/postemergence giant foxtail; format: in vivo, Setaria faberii
# Outline: as §1
# morningglory = assay: Test B pre/postemergence morningglory; format: in vivo, Ipomoea hederacea
# Outline: as §1
# pigweed = assay: Test B pre/postemergence pigweed; format: in vivo, Amaranthus retroflexus
# Outline: as §1
# rape = assay: Test B pre/postemergence rape; format: in vivo, Brassica napus
# Outline: as §1
# soybean = assay: Test B pre/postemergence soybean; format: in vivo, Glycine max
# Outline: as §1
# sugar beet = assay: Test B pre/postemergence sugar beet; format: in vivo, Beta vulgaris
# Outline: as §1
# velvetleaf = assay: Test B pre/postemergence velvetleaf; format: in vivo, Abutilon theophrasti
# Outline: as §1
# wheat = assay: Test B pre/postemergence wheat; format: in vivo, Triticum aestivum
# Outline: as §1
# wild oat = assay: Test B pre/postemergence wild oat; format: in vivo, Avena fatua
# Outline: as §1
# purple nutsedge = assay: Test B pre/postemergence purple nutsedge; format: in vivo, Cyperus rotundus
# Outline: as §1
# rice = assay: Test B flood test rice; format: in vivo, Oryza sativa; details: flood test species
# Outline: (§2)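 Plants were grown to the 2-leaf stage before treatment with test chemical, then held in a greenhouse for twelve to sixteen days. Injury was visually rated against untreated controls on a 0–10 scale, where 0 is no effect and 10 is complete control.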
# smallflower flatsedge = assay: Test B flood test smallflower flatsedge; format: in vivo, Cyperus difformis; details: flood test species
# Outline: as §2
# duck salad = assay: Test B flood test duck salad; format: in vivo, Heteranthera limosa; details: flood test species
# Outline: as §2
# bamyardgrass = assay: Test B flood test barnyardgrass; format: in vivo, Echinochloa crus-galli; details: flood test species
# Outline: as §2
# [1] = Postemergence, Rate 125 g/ha, scale 0 to 10, 0 is no effect, 10 is complete control
# [2] = Postemergence, Rate 250 g/ha, scale 0 to 10
# [3] = Postemergence, Rate 500 g/ha, scale 0 to 10, 0 is no effect, 10 is complete control
# [4] = Preemergence, Rate 62 g/ha, scale of 0 to 10 where 0 is no effect and 10 is complete control
# [5] = Preemergence, Rate 125 g/ha, scale 0 to 10, 0 is no effect, 10 is complete control
# [6] = Preemergence, Rate 250 g/ha, scale 0 to 10, 0 is no effect, 10 is complete control
# [7] = Preemergence, Rate 500 g/ha, scale 0 to 10, 0 is no effect, 10 is complete control
# [8] = Rate 62 g/ha, Postemergence, scale 0 to 10 (0 no effect, 10 complete control)
# [9] = Rate 62 g/ha, Pre-emergence, visual evaluation after twelve to sixteen days
# [10] = Rate 125 g/ha, under heading Pre-emergence, visual evaluation after twelve to sixteen days
# [11] = Rate 500 g/ha, Pre-emergence, scale 0 to 10 (0 no effect, 10 complete control)
smiles,measurement,setting,value
CC(C)C(=O)Cn1c(=O)on(C(=O)N(c2ccccc2)C(C)C)c1=O [Compound 485],Bedstraw plant response rating,"bedstraw; Rate 125 g/ha, scale 0 to 10, 0 is no effect, 10 is complete control",0
same,Bedstraw plant response rating,"bedstraw; Rate 250 g/ha, scale 0 to 10",2
same,"Plant response rating, Bedstraw","bedstraw; Rate 500 g/ha, scale 0 to 10, 0 is no effect, 10 is complete control",6
same,Bedstraw plant response rating,"bedstraw; Rate 62 g/ha, scale 0 to 10 (0 no effect, 10 complete control)",0
same,Blackgrass plant response rating,blackgrass; [1],7
same,Blackgrass plant response rating,blackgrass; [2],7
same,"Plant response rating, Blackgrass",blackgrass; [3],8
same,"Plant response rating, Blackgrass",blackgrass; [4],4
same,Blackgrass plant response rating,blackgrass; [5],8
same,Blackgrass plant response rating,blackgrass; [6],8
same,Blackgrass plant response rating,blackgrass; [7],9
same,Blackgrass plant response rating,blackgrass; [8],3
same,B. signalgrass plant response rating,surinam grass; [1],0
same,B. signalgrass plant response rating,"surinam grass; Postemergence, Rate 250 g/ha, scale 0 to 10, 0 no effect, 10 complete control",4
same,"Plant response rating, B. signalgrass",surinam grass; [3],5
same,"Plant response rating, B. signalgrass",surinam grass; [4],3
same,B. signalgrass plant response rating,surinam grass; [5],5
same,B. signalgrass plant response rating,surinam grass; [6],8
same,B. signalgrass plant response rating,surinam grass; [7],8
same,B. signalgrass plant response rating,surinam grass; [8],0
same,Cocklebur plant response rating,cocklebur; [1],0
same,Cocklebur plant response rating,cocklebur; [2],0
same,"Plant response rating, Cocklebur",cocklebur; [3],0
same,"Plant response rating, Cocklebur",cocklebur; [4],0
same,Cocklebur plant response rating,cocklebur; [5],0
same,Cocklebur plant response rating,cocklebur; [6],0
same,Cocklebur plant response rating,cocklebur; [7],0
same,Cocklebur plant response rating,cocklebur; [8],0
same,Corn plant response rating,corn; [1],0
same,Corn plant response rating,corn; [2],0
same,"Plant response rating, Corn",corn; [3],0
same,"Plant response rating, Corn",corn; [4],0
same,Corn plant response rating,corn; [5],0
same,Corn plant response rating,corn; [6],0
same,Corn plant response rating,corn; [7],7
same,Corn plant response rating,corn; [8],0
same,Crabgrass plant response rating,crabgrass; [1],6
same,Crabgrass plant response rating,crabgrass; [2],7
same,"Plant response rating, Crabgrass",crabgrass; [3],8
same,"Plant response rating, Crabgrass",crabgrass; [4],6
same,Crabgrass plant response rating,crabgrass; [5],7
same,Crabgrass plant response rating,crabgrass; [6],10
same,Crabgrass plant response rating,crabgrass; [7],10
same,Crabgrass plant response rating,crabgrass; [8],3
same,Giant foxtail plant response rating,giant foxtail; [1],7
same,"Plant response rating, Giant foxtail",giant foxtail; [3],8
same,"Plant response rating, Giant foxtail",giant foxtail; [4],7
same,Giant foxtail plant response rating,giant foxtail; [5],8
same,Giant foxtail plant response rating,giant foxtail; [6],10
same,Giant foxtail plant response rating,giant foxtail; [7],10
same,Giant foxtail plant response rating,giant foxtail; [8],5
same,Morningglory plant response rating,morningglory; [1],10
same,"Plant response rating, Morningglory",morningglory; [3],10
same,"Plant response rating, Morningglory",morningglory; [4],0
same,Morningglory plant response rating,morningglory; [5],0
same,Morningglory plant response rating,morningglory; [6],0
same,Morningglory plant response rating,morningglory; [7],4
same,Morningglory plant response rating,morningglory; [8],8
same,Redroot pigweed plant response rating,pigweed; [1],0
same,"Plant response rating, Redroot pigweed",pigweed; [3],2
same,"Plant response rating, Redroot pigweed",pigweed; [4],1
same,Redroot pigweed plant response rating,pigweed; [5],6
same,Redroot pigweed plant response rating,pigweed; [7],9
same,Redroot pigweed plant response rating,pigweed; [8],0
same,Rape plant response rating,rape; [1],0
same,"Plant response rating, Rape",rape; [3],0
same,"Plant response rating, Rape",rape; [4],0
same,Rape plant response rating,rape; [5],0
same,Rape plant response rating,rape; [6],0
same,Rape plant response rating,rape; [7],2
same,Rape plant response rating,rape; [8],0
same,Soybean plant response rating,soybean; [1],4
same,"Plant response rating, Soybean",soybean; [3],5
same,"Plant response rating, Soybean",soybean; [4],0
same,Soybean plant response rating,soybean; [5],0
same,Soybean plant response rating,soybean; [6],0
same,Soybean plant response rating,soybean; [7],0
same,Soybean plant response rating,soybean; [8],2
same,Sugarbeets plant response rating,sugar beet; [1],0
same,"Plant response rating, Sugarbeets",sugar beet; [3],0
same,"Plant response rating, Sugarbeets",sugar beet; [4],0
same,Sugarbeets plant response rating,sugar beet; [5],0
same,Sugarbeets plant response rating,sugar beet; [6],0
same,Sugarbeets plant response rating,sugar beet; [7],2
same,Sugarbeets plant response rating,sugar beet; [8],0
same,Velvetleaf plant response rating,velvetleaf; [1],0
same,"Plant response rating, Velvetleaf",velvetleaf; [3],4
same,"Plant response rating, Velvetleaf",velvetleaf; [4],0
same,Velvetleaf plant response rating,velvetleaf; [5],0
same,Velvetleaf plant response rating,velvetleaf; [6],0
same,Velvetleaf plant response rating,velvetleaf; [7],3
same,Velvetleaf plant response rating,velvetleaf; [8],0
same,Wheat plant response rating,wheat; [1],0
same,"Plant response rating, Wheat",wheat; [3],5
same,"Plant response rating, Wheat",wheat; [4],0
same,Wheat plant response rating,wheat; [5],2
same,Wheat plant response rating,wheat; [6],3
same,Wheat plant response rating,wheat; [7],5
same,Wheat plant response rating,wheat; [8],0
same,Wild oats plant response rating,wild oat; [1],0
same,"Plant response rating, Wild oats",wild oat; [3],4
same,"Plant response rating, Wild oats",wild oat; [4],2
same,Wild oats plant response rating,wild oat; [5],5
same,Wild oats plant response rating,wild oat; [6],6
same,Wild oats plant response rating,wild oat; [7],8
same,Wild oats plant response rating,wild oat; [8],0
same,Nutsedge plant response rating,purple nutsedge; [1],0
same,"Plant response rating, Nutsedge",purple nutsedge; [3],0
same,"Plant response rating, Nutsedge",purple nutsedge; [4],0
same,Nutsedge plant response rating,purple nutsedge; [5],0
same,Nutsedge plant response rating,purple nutsedge; [6],0
same,Nutsedge plant response rating,purple nutsedge; [7],0
same,Nutsedge plant response rating,purple nutsedge; [8],0
same,"Plant response rating, Rice (0 to 10 scale, 0 is no effect, 10 is complete control)",rice; [9],0
same,"Rice plant response rating (0 to 10 scale, 0 is no effect, 10 is complete control)",rice; [10],0
same,Rice plant response rating,rice; [11],0
same,"Plant response rating, S. Flatsedge (0 to 10 scale, 0 is no effect, 10 is complete control)",smallflower flatsedge; [9],0
same,"S. Flatsedge plant response rating (0 to 10 scale, 0 is no effect, 10 is complete control)",smallflower flatsedge; [10],0
same,S. Flatsedge plant response rating,smallflower flatsedge; [11],0
same,"Plant response rating, Ducksalad (0 to 10 scale, 0 is no effect, 10 is complete control)",duck salad; [9],0
same,"Ducksalad plant response rating (0 to 10 scale, 0 is no effect, 10 is complete control)",duck salad; [10],0
same,Ducksalad plant response rating,duck salad; [11],0
same,"Plant response rating, Barnyardgrass (0 to 10 scale, 0 is no effect, 10 is complete control)",bamyardgrass; [9],0
same,"Barnyardgrass plant response rating (0 to 10 scale, 0 is no effect, 10 is complete control)",bamyardgrass; [10],0
same,Barnyardgrass plant response rating,bamyardgrass; [11],0

# Source: US6737383B1, “Herbicidal oxadiazolidines” (priority 1999, dated 2004)
